From patent EP4692088A1, “COMPOUND ACTING AS WRN HELICASE INHIBITOR” (SHANGHAI JEYOU PHARMACEUTICAL CO., LTD., priority 2023, dated 2024)
pIC50: −log10 of the molar value.

Assays:
[1] = molecular target: T1, WRN enzyme (Homo sapiens, UniProt Q14191); assay: biochemical
T1 construct: host or cells: eukaryotic cells (not further specified)
Description: The WRN enzyme used in the experiment has a His-TEV tag at the N-terminus and is expressed in eukaryotic cells with a purity of 90%. The assay kit (ADP-Glo™ Kinase Assay) was purchased from Promega (Cat. No. V9101), aliquoted, and then stored in the refrigerator at -40°C. This kit could quantitatively detect the amount of ADP generated in the reaction. WRN hydrolyzed ATP to produce ADP. The ADP-Glo reagent was added to deplete excess ATP in the reaction system, followed by the addition of Kinase Detection Reagent to convert the ADP produced by the reaction into ATP and produce chemiluminescence. The enzyme activity of WRN can be reflected by detecting the chemiluminescence signal using a microplate reader.
Single-stranded DNA was annealed to form double-stranded DNA. 5× Annealing Buffer: 50 mM Tris pH 8.0, 100 mM NaCl. Annealing program: 95°C, 5 min.
2× WRN enzyme (1 nM) and 2× substrate (1 nM double-stranded DNA, 100 µM ATP) were prepared using a buffer (20 mM Bicine (pH 7.5), 10 mM KCl, 10 mM MgCl2, 0.005% BSG, 0.002% Tween 20, 1 mM TCEP). The test compound was dissolved in DMSO to 10 mM and was gradient-diluted using a 96-well V-bottom plate. First, 25 µL of 2× WRN enzyme and 0.5 µL of compound were added to a 96-well plate and incubated at room temperature for 30 min. Then, 25 µL of 2× substrate was added, and the reaction was carried out at room temperature for 60 min. 5 µL was taken from the reaction plate and transferred to a 384-well plate for detection. 5 µL of ADP-Glo reagent was added and incubated at room temperature for 60 min, followed by the addition of 10 µL of Kinase Detection Reagent and incubation at room temperature for 40 min. The chemiluminescence signal was detected using a microplate reader.

[2] = tested on: SW48 cells; assay: Cell proliferation assay (CellTiter-Glo), SW48; assay type: cell-based; conditions: Homo sapiens, SW48, 120 h, SW-48, 5 days incubation
Description: (§1) SW48 cells were plated at a density of 1,500 cells/well, and LoVo, HCT116, and SW620 cells were plated at a density of 800 cells/well in a 96-well cell culture plate, and cultured in a 37°C incubator overnight. The test compounds, which were gradient-diluted with DMSO, were added, and after incubation for 5 days, cell viability was detected using a CellTiter-Glo kit. The CellTiter-Glo reagent was equilibrated to room temperature, and an appropriate amount was added to the cell plate, followed by shaking at room temperature for 12 min. The luminescence signal was detected using a microplate reader.
(§2) The luminescence signal values of the DMSO-treated wells and cell-free wells were used as negative and positive controls, respectively, to calculate the inhibition rate of compound on cell proliferation. The concentration-inhibition curve was fitted using the "log(inhibitor) vs. normalized response -- Variable slope" equation in GraphPad Prism 8 software to obtain the IC50. [formula]

[3] = tested on: SW620 cells; assay: Cell proliferation assay (CellTiter-Glo), SW620; assay type: cell-based; conditions: Homo sapiens, 120 h, SW-620 (MSS), 5 days incubation
Description: as §1, §2

[4] = tested on: HCT116; assay: γH2AX induction assay (HTRF Phospho-H2AX), HCT116; assay type: cell-based; conditions: Homo sapiens, HCT-116, incubated for 2-3 days, read-out: γ-H2AX induction HCT-116 (EC50 nM)
Description: (§3) SW48, HCT116, and SW620 cells were plated into 96-well cell culture plates at a density of 15,000-25,000 cells/well and cultured overnight in a 37°C incubator. The test compounds, which were gradient-diluted with DMSO, were added and incubated for 2-3 days. The γ-H2AX level was detected using HTRF Phospho-H2AX (SER139) Detection Kits. The 4× Lysis buffer and Detection buffer were equilibrated to room temperature for later use. The 4× Lysis buffer was diluted to 1× Lysis buffer using ddH2O. After the medium was aspirated, 50 µL of 1× Lysis buffer was added to each well and shaken at room temperature for 30 minutes for lysis. 16 µL of lysate was transferred to a 384-well plate, followed by the addition of 4 µL of diluted antibody mixture (Phospho-H2AX d2 antibody and Phospho-H2AX Eu Cryptate antibody were each diluted 20-fold using Detection buffer, and the two antibodies were then mixed uniformly at a 1:1 volume ratio). The mixture was incubated at room temperature for 2-24 h, and fluorescence signals at […] and 615 nm were detected using a microplate reader. Parallel treatment plates were simultaneously set up in the experiment, and cell viability was detected using the CellTiter-Glo kit. The CellTiter-Glo reagent was equilibrated to room temperature, and an appropriate amount was added to the cell plate, followed by shaking at room temperature for 12 min. The luminescence signal was detected using a microplate reader.
(§4) The fluorescence signal values of DMSO-treated wells and positive drug-treated wells were used as negative and positive controls, respectively, to calculate the level of γ-H2AX induced by the compounds. The concentration-induction rate curve was fitted using the "log(agonist) vs. response -- Variable slope (four parameters)" equation in GraphPad Prism 8 software to obtain the EC50. [formula] [formula]

[5] = tested on: SW48; assay: γH2AX induction assay (HTRF Phospho-H2AX), SW48; assay type: cell-based; conditions: Homo sapiens, SW-48, incubated for 2-3 days, read-out: γ-H2AX induction SW-48 (EC50 nM)
Description: as §3, §4

[6] = tested on: SW620 cells; assay: γH2AX induction assay (HTRF Phospho-H2AX), SW620; assay type: cell-based; conditions: Homo sapiens, SW-620 (MSS), incubated for 2-3 days, read-out: γ-H2AX induction SW-620 (EC50 nM)
Description: as §3, §4

T1 sequence (Q14191 whole entry): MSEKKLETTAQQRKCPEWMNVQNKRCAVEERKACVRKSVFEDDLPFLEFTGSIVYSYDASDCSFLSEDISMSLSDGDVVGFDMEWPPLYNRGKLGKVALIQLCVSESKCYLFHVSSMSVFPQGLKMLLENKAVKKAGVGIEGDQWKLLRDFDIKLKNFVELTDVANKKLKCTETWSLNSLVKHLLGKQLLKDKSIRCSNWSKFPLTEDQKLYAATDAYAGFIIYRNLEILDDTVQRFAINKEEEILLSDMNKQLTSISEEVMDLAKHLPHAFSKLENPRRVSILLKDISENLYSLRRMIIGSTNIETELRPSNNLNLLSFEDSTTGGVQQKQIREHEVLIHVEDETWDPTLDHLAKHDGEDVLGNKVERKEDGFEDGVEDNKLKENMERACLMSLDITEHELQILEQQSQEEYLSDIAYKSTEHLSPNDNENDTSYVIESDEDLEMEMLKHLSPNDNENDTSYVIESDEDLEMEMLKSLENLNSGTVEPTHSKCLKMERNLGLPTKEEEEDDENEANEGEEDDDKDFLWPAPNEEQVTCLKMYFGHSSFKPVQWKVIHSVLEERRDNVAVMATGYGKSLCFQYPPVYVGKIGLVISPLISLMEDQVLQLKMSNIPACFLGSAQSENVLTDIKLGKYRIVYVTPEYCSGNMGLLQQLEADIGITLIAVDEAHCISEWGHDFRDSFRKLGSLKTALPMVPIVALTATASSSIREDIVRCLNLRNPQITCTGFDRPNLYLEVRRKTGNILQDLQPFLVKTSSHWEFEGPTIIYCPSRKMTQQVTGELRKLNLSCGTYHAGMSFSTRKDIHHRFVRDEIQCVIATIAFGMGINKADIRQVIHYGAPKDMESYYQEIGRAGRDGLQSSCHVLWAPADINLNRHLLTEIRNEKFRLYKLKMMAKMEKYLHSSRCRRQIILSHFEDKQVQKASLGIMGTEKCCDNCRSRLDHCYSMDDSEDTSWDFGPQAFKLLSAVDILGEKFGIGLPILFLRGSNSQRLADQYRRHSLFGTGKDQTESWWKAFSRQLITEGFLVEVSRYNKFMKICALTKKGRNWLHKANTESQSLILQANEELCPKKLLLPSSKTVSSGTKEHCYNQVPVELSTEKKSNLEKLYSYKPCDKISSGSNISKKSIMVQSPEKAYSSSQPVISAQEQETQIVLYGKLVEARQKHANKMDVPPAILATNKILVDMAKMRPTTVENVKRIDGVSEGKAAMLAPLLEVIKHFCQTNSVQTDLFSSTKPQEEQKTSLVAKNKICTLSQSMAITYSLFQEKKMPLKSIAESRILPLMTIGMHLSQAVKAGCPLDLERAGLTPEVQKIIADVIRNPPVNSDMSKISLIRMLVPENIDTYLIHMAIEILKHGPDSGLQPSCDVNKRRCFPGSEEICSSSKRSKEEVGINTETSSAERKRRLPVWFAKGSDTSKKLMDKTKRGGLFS

SMILES	pIC50 [1]	IC50 [2] [nM]	IC50 [3] [nM]	EC50 [4] [nM]	EC50 [5] [nM]	EC50 [6] [nM]
CCc1c(N2CCN(C(=O)c3ncnc(C)c3O)CC2)c(=O)c2nn(C3=CCOCC3)nc2n1CC(=O)Nc1ccc(C(F)(F)F)cc1Cl [Example 4]	7.05	37.2	> 25000	128	53.8	> 10000
CCc1c(N2CCN(C(=O)c3ncnc(C)c3O)CC2)c(=O)c2nn(C3=CCOCC3)nc2n1CC(=O)Nc1cc(F)c(Cl)cc1Cl [Example 22]	7.33	70.7	> 25000	168	128	> 10000
CCc1c(N2CCN(C(=O)c3ncnc(C)c3O)CC2)c(=O)c2nn(C3=CCOCC3)nc2n1CC(=O)Nc1cc(F)c(C(F)(F)F)cc1Cl [Example 15]	7.46	35.4	> 25000	97.1	62.9	> 10000
